{
  "source": "paper PMC5848165",
  "about": "(Toxins, 2018)",
  "key": {"[1]": {"tested_on": "Nav1.4", "assay": "Whole-cell patch clamp, Nav1.4 in HEK293 cells", "type": "cell-based, rat", "conditions": "1 µM, −10 mV from −80 mV", "from_the_text": "(§1) Nine sodium channel subtypes have been identified and classified as TTX-S (Nav1.1–Nav1.4, Nav1.6, and Nav1.7) or TTX-R types (Nav1.5, Nav1.8, and Nav1.9). […] However, the subtype selectivity of JZTX-34 on the subtype of sodium channel is still unknown. In this work, effects of JZTX-34 on VGSC subtypes (Nav1.1–Nav1.8) were examined. Nav1.1–Nav1.7 were transfected into HEK293 cells and Nav1.8 currents were expressed in ND cells. Inward sodium currents were elicited by a 50 ms depolarizing potential to −10 mV from a holding potential of −80 mV every 5 s. […] No effects on other sodium channel subtypes were found (Nav1.1, Nav1.2, Nav1.4–Nav1.6, and Nav1.8) (Figure S2). […]\n(§2) The HEK293T cells were maintained in standard culture conditions (5% CO2 and 37 °C). […] After culturing for 36–72 h, cells with obvious green fluorescence were selected for sodium currents recordings the internal solution for sodium currents recording that contained (in mM) 140 CsF, 5 NaCl, 10 HEPES, 3 Na2-ATP, and 10 EGTA. […]\n(§3) Sodium currents were recorded from DRG, HEK293, and ND cells by the whole-cell patch-clamp technique at 25 °C. […] Experiments date were acquired from whole-cell Axon 700B patch clamp amplifier (Molecular Devices, Sunnyvale, CA, USA) and analyzed by the program Clampfit10.0 (Molecular Devices, Sunnyvale, CA, USA) and Sigmaplot. […]"}, "[2]": {"tested_on": "TTX-R sodium channels from rat DRG neurons", "conditions": "ref [18]; cited from earlier work", "from_the_text": "In this study, the analgesic effect and mechanism of JZTX-34 on pain were investigated."}, "[3]": {"tested_on": "Nav1.8", "assay": "Whole-cell patch clamp, Nav1.8 in ND cells", "type": "cell-based, human", "conditions": "1 µM, −10 mV from −80 mV", "from_the_text": "as §1, §2, §3"}, "[4]": {"tested_on": "formalin-induced paw licking response in mice", "assay": "Formalin-induced paw licking", "type": "in vivo, mouse (Kunming)", "conditions": "for paw licking time, early phase: control 145.5 s; for paw licking time, early phase / paw licking time, late phase: n = 6; for paw licking time, late phase: control 414.5 s", "protocol": "Since Nav1.7 plays an important role in pain, the analgesic effects of JZTX-34 were examined in three animal models (formalin-induced paw licking, acetic acid-induced writhing, and hot plate). Intraplantar injection of formalin causes pain and can be divided into two phases. The early phase was neurogenic pain and usually occurred within […]), and the late phase was inflammatory pain lasting from 15 to 30 min).\nFigure 6 Effects of JZTX-34 on pain. (A) Effects of JZTX-34 on the early phase (0–5 min) and late phase (15–30 min) of formalin-induced paw licking response in mice. (B) Effects of JZTX-34 on the acetic acid-induced writhing response in mice. (C)Effects of JZTX-34 on the hot plate test in mice.\nThe synthesized JZTX-34 was obtained according to the procedure as previously described. […] Rats (Sprague-Dawley) and Kunming mice were maintained in the Laboratory of Protein Chemistry of Hunan Normal University. All of the experimental involving animals were approved by the Animal Care and Use Committee of Hunan Normal University (2016-273, 13 October 2016).\nFormalin test was performed according to the method described previously. […] After test samples were intraperitoneally (i.p.) injected, 5% formalin (20 μL) was injected to the plantar surface of right hind paw. The time spent licking the injected paw was counted every 5 min. Phase I was defined as 0–10 min, and Phase II defined as […].\nData from Axon 700B patch clamp were analyzed by Clampfit10.0 (Molecular Devices, Sunnyvale, CA, USA). Dose-response curves were fitted by the Hill logistic equation: y = 1 − (1 − fmax)/[…]. In this equation, n stands an empirical Hill coefficient and fmax is the fraction of current resistant to inhibition at high toxin (Tx) concentration. The G-V curves were obtained by calculating the conductance (G) at each voltage (V) using the equation G = I/(V1 − Vrev), with Vrev being the reversal potential determined for each cell individually. G-V curves were fitted using a Boltzmann equation—y = 1/(1 + exp[(Va − V)/κ])—in which Va, V, and κ represent midpoint voltage of kinetics, test potential, and slope factor, respectively. […] Statistical significance was calculated using Student’s t-test and was defined as p < 0.05."}},
  "note": "Residues, ends and D or L forms follow the SMILES beside them.",
  "data": [
    {"smiles": "CC(C)C[C@@H]1NC(=O)[C@H](Cc2c[nH]c3ccccc23)NC(=O)[C@H](CCC(=O)O)NC(=O)[C@H](CCCNC(=N)N)NC(=O)[C@@H](NC(=O)[C@H](C)N)CSSC[C@@H]2NC(=O)[C@@H]3CSSC[C@@H](C(=O)N[C@H](C(=O)N[C@@H](Cc4c[nH]c5ccccc45)C(=O)N[C@@H](CC(=O)O)C(=O)N[C@@H](Cc4c[nH]c5ccccc45)C(=O)N[C@H](C(=O)N[C@H](C(=O)O)C(C)C)[C@@H](C)O)C(C)C)NC(=O)[C@H](Cc4c[nH]cn4)NC(=O)[C@H](Cc4ccc(O)cc4)NC(=O)[C@@H]4CCCN4C(=O)[C@H](Cc4c[nH]c5ccccc45)NC(=O)[C@H](CCCCN)NC(=O)[C@H](CCCCN)NC(=O)[C@H](CCCNC(=N)N)NC(=O)[C@H](CSSC[C@H](NC(=O)CNC(=O)CNC1=O)C(=O)N[C@@H](CO)C(=O)N[C@@H](CCCCN)C(=O)N[C@@H](CC(=O)O)C(=O)N[C@@H](C)C(=O)N[C@@H](CC(=O)O)C(=O)N3)NC(=O)[C@H](CCC(=O)O)NC(=O)[C@H](CC(C)C)NC(=O)[C@H](Cc1c[nH]cn1)NC(=O)[C@H](C)NC2=O", "note": "[JZTX-34, Jingzhaotoxin-34] (HELM PEPTIDE1{A.C.R.E.W.L.G.G.C.S.K.D.A.D.C.C.A.H.L.E.C.R.K.K.W.P.Y.H.C.V.W.D.W.T.V}$PEPTIDE1,PEPTIDE1,2:R3-16:R3|PEPTIDE1,PEPTIDE1,9:R3-21:R3|PEPTIDE1,PEPTIDE1,15:R3-29:R3$$$V2.0; N-terminus and C-terminus assumed)", "values": [
      {"measurement": "effect on Nav1.4 currents", "setting": "[1]", "value": "No effects"},
      {"measurement": "effect on TTX-R sodium currents (previous work)", "setting": "[2]", "value": "no inhibition on tetrodotoxin-resistant (TTX-R) sodium currents"},
      {"measurement": "effect on Nav1.8 currents", "setting": "[3]", "value": "No effects"},
      {"measurement": "paw licking time, early phase", "setting": "[4]; 0.5 mg/kg i.p.", "value": 125.5, "unit": "s"},
      {"measurement": "paw licking time, late phase", "setting": "[4]; 0.5 mg/kg i.p.", "value": 282.2, "unit": "s"},
      {"measurement": "paw licking time, early phase", "setting": "[4]; 1 mg/kg i.p.", "value": 50.1, "unit": "s"},
      {"measurement": "paw licking time, late phase", "setting": "[4]; 1 mg/kg i.p.", "value": 263.6, "unit": "s"},
      {"measurement": "paw licking time, early phase", "setting": "[4]; 2 mg/kg i.p.", "value": 34.7, "unit": "s"},
      {"measurement": "paw licking time, late phase", "setting": "[4]; 2 mg/kg i.p.", "value": 148.0, "unit": "s"},
      {"measurement": "formalin first phase, efficacy vs morphine", "setting": "[4]; JZTX-34 2 mg/kg vs morphine 5 mg/kg", "value": "equipotent with morphine (5 mg/kg)"}
    ]}
  ]
}
